Patent publication US10189816B2, “Substituted pyridines as inhibitors of human immunodeficiency virus replication” (priority 2015, dated 2019)

tested on: NL-RLuc virus; assay: Inhibition of HIV replication (NL-RLuc reporter virus in MT-2 cells, luciferase readout); format: cell-based; details: Human immunodeficiency virus 1, MT2, 120 h, read-out: Activity
How it was run: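 Antiviral EC50 came from luciferase signal after 5-day multicycle replication of NL-RLuc virus in MT-2 cells with serially diluted compound (RPMI 1640, 10% heat-inactivated FBS), fitted by the median effect equation over at least 2 experiments.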

**Q.** How did the EC50 turn out when `COc1ccc(CN2CCc3cc(-c4c(C)nc(C)c([C@H](OC(C)(C)C)C(=O)O)c4N4CCC(C)(C)CC4)ccc3C2)c(C)c1C` [Compound 147, (S)-2-(tert-butoxy)-2-(4-(4,4-dimethylpiperidin-1-yl)-5-(2-(4-methoxy-2,3-dimethylbenzyl)-1,2,3,4-tetrahydroisoquinolin-6-yl)-2,6-dimethylpyridin-3-yl)acetic acid] was run?
**A.** < 0.1 µM

**Q.** Which EC50 does the source give for `COc1cc(C)c(CN2CCc3cc(-c4c(C)nc(C)c([C@H](OC(C)(C)C)C(=O)O)c4N4CCC(C)(C)CC4)ccc3C2)cc1C` [Compound 148, (S)-2-(tert-butoxy)-2-(4-(4,4-dimethylpiperidin-1-yl)-5-(2-(4-methoxy-2,5-dimethylbenzyl)-1,2,3,4-tetrahydroisoquinolin-6-yl)-2,6-dimethylpyridin-3-yl)acetic acid] here?
**A.** < 0.1 µM

**Q.** `CCOc1ccc(CN2CCc3cc(-c4c(C)nc(C)c([C@H](OC(C)(C)C)C(=O)O)c4N4CCC(C)(C)CC4)ccc3C2)cc1` [Compound 149, (S)-2-(tert-butoxy)-2-(4-(4,4-dimethylpiperidin-1-yl)-5-(2-(4-ethoxybenzyl)-1,2,3,4-tetrahydroisoquinolin-6-yl)-2,6-dimethylpyridin-3-yl)acetic acid] was tested. Which EC50 did it give?
**A.** < 0.1 µM

**Q.** For `Cc1nc(C)c([C@H](OC(C)(C)C)C(=O)O)c(N2CCC(C)(C)CC2)c1-c1ccc2c(c1)CCN(Cc1ccc(OC(C)C)cc1)C2` [Compound 150, (S)-2-(tert-butoxy)-2-(4-(4,4-dimethylpiperidin-1-yl)-5-(2-(4-isopropoxybenzyl)-1,2,3,4-tetrahydroisoquinolin-6-yl)-2,6-dimethylpyridin-3-yl)acetic acid], which EC50 is on record?
**A.** < 0.1 µM

**Q.** `COc1ccc(C(F)(F)F)cc1CN1CCc2cc(-c3c(C)nc(C)c([C@H](OC(C)(C)C)C(=O)O)c3N3CCC(C)(C)CC3)ccc2C1` [Compound 151, (S)-2-(tert-butoxy)-2-(4-(4,4-dimethylpiperidin-1-yl)-5-(2-(2-methoxy-5-(trifluoromethyl)benzyl)-1,2,3,4-tetrahydroisoquinolin-6-yl)-2,6-dimethylpyridin-3-yl)acetic acid] was tested. Which EC50 did it give?
**A.** < 0.1 µM

**Q.** How did the EC50 turn out when `Cc1nc(C)c([C@H](OC(C)(C)C)C(=O)O)c(N2CCC(C)(C)CC2)c1-c1ccc2c(c1)CCN(Cc1ccccc1OC(C)C)C2` [Compound 152, (S)-2-(tert-butoxy)-2-(4-(4,4-dimethylpiperidin-1-yl)-5-(2-(2-isopropoxybenzyl)-1,2,3,4-tetrahydroisoquinolin-6-yl)-2,6-dimethylpyridin-3-yl)acetic acid] was run?
**A.** < 0.1 µM

**Q.** For `Cc1nc(C)c([C@H](OC(C)(C)C)C(=O)O)c(N2CCC(C)(C)CC2)c1-c1ccc2c(c1)CCN(Cc1ccccc1OCC(C)C)C2` [Compound 153, (S)-2-(tert-butoxy)-2-(4-(4,4-dimethylpiperidin-1-yl)-5-(2-(2-isobutoxybenzyl)-1,2,3,4-tetrahydroisoquinolin-6-yl)-2,6-dimethylpyridin-3-yl)acetic acid], which EC50 is on record?
**A.** < 0.1 µM

**Q.** For `Cc1nc(C)c([C@H](OC(C)(C)C)C(=O)O)c(N2CCC(C)(C)CC2)c1-c1ccc2c(c1)CCN(Cc1cccc(OC(C)C)c1)C2` [Compound 154, (S)-2-(tert-butoxy)-2-(4-(4,4-dimethylpiperidin-1-yl)-5-(2-(3-isopropoxybenzyl)-1,2,3,4-tetrahydroisoquinolin-6-yl)-2,6-dimethylpyridin-3-yl)acetic acid], which EC50 is on record?
**A.** < 0.1 µM

**Q.** How did the EC50 turn out when `Cc1nc(C)c([C@H](OC(C)(C)C)C(=O)O)c(N2CCC(C)(C)CC2)c1-c1ccc2c(c1)CCN(Cc1ccc3c(c1)CCCO3)C2` [Compound 155, (S)-2-(tert-butoxy)-2-(5-(2-(chroman-6-ylmethyl)-1,2,3,4-tetrahydroisoquinolin-6-yl)-4-(4,4-dimethylpiperidin-1-yl)-2,6-dimethylpyridin-3-yl)acetic acid] was run?
**A.** < 0.1 µM

**Q.** For `Cc1nc(C)c([C@H](OC(C)(C)C)C(=O)O)c(N2CCC(C)(C)CC2)c1-c1ccc2c(c1)CCN(Cc1ccc3c(c1)OCCO3)C2` [Compound 156, (S)-2-(tert-butoxy)-2-(5-(2-((2,3-dihydrobenzo[b][1,4]dioxin-6-yl)methyl)-1,2,3,4-tetrahydroisoquinolin-6-yl)-4-(4,4-dimethylpiperidin-1-yl)-2,6-dimethylpyridin-3-yl)acetic acid], which EC50 is on record?
**A.** < 0.1 µM

**Q.** With `Cc1nc(C)c([C@H](OC(C)(C)C)C(=O)O)c(N2CCC(C)(C)CC2)c1-c1ccc2c(c1)CCN(Cc1ccc(OC(F)F)c(OC(F)F)c1)C2` [Compound 157, (S)-2-(5-(2-(3,4-bis(difluoromethoxy)benzyl)-1,2,3,4-tetrahydroisoquinolin-6-yl)-4-(4,4-dimethylpiperidin-1-yl)-2,6-dimethylpyridin-3-yl)-2-(tert-butoxy)acetic acid] as the compound, how does the EC50 read?
**A.** < 0.1 µM

**Q.** With `Cc1nc(C)c([C@H](OC(C)(C)C)C(=O)O)c(N2CCC(C)(C)CC2)c1-c1ccc2c(c1)CCN(Cc1cccc3c1OCCO3)C2` [Compound 158, (S)-2-(tert-butoxy)-2-(5-(2-((2,3-dihydrobenzo[b][1,4]dioxin-5-yl)methyl)-1,2,3,4-tetrahydroisoquinolin-6-yl)-4-(4,4-dimethylpiperidin-1-yl)-2,6-dimethylpyridin-3-yl)acetic acid] as the compound, how does the EC50 read?
**A.** < 0.1 µM

**Q.** For `Cc1nc(C)c([C@H](OC(C)(C)C)C(=O)O)c(N2CCC(C)(C)CC2)c1-c1ccc2c(c1)CCN(Cc1c(F)cccc1Oc1ccccc1)C2` [Compound 159, (S)-2-(tert-butoxy)-2-(4-(4,4-dimethylpiperidin-1-yl)-5-(2-(2-fluoro-6-phenoxybenzyl)-1,2,3,4-tetrahydroisoquinolin-6-yl)-2,6-dimethylpyridin-3-yl)acetic acid], which EC50 is on record?
**A.** < 0.1 µM

**Q.** Which EC50 does the source give for `Cc1cc(OC(C)C)cc(C)c1CN1CCc2cc(-c3c(C)nc(C)c([C@H](OC(C)(C)C)C(=O)O)c3N3CCC(C)(C)CC3)ccc2C1` [Compound 160, (S)-2-(tert-butoxy)-2-(4-(4,4-dimethylpiperidin-1-yl)-5-(2-(4-isopropoxy-2,6-dimethylbenzyl)-1,2,3,4-tetrahydroisoquinolin-6-yl)-2,6-dimethylpyridin-3-yl)acetic acid] here?
**A.** < 0.1 µM

**Q.** For `Cc1ccc(CN2CCc3cc(-c4c(C)nc(C)c([C@H](OC(C)(C)C)C(=O)O)c4N4CCC(C)(C)CC4)ccc3C2)cc1C` [Compound 161, (S)-2-(tert-butoxy)-2-(5-(2-(3,4-dimethylbenzyl)-1,2,3,4-tetrahydroisoquinolin-6-yl)-4-(4,4-dimethylpiperidin-1-yl)-2,6-dimethylpyridin-3-yl)acetic acid], which EC50 is on record?
**A.** < 0.1 µM

**Q.** For `Cc1nc(C)c([C@H](OC(C)(C)C)C(=O)O)c(N2CCC(C)(C)CC2)c1-c1ccc2c(c1)CCN(Cc1ccc(C3(C#N)CC3)cc1)C2` [Compound 162, (S)-2-(tert-butoxy)-2-(5-(2-(4-(1-cyanocyclopropyl)benzyl)-1,2,3,4-tetrahydroisoquinolin-6-yl)-4-(4,4-dimethylpiperidin-1-yl)-2,6-dimethylpyridin-3-yl)acetic acid], which EC50 is on record?
**A.** < 0.1 µM

**Q.** For `CCCCCCCCCOc1ccc(CN2CCc3cc(-c4c(C)nc(C)c([C@H](OC(C)(C)C)C(=O)O)c4N4CCC(C)(C)CC4)ccc3C2)cc1` [Compound 163, (S)-2-(tert-butoxy)-2-(4-(4,4-dimethylpiperidin-1-yl)-2,6-dimethyl-5-(2-(4-(nonyloxy)benzyl)-1,2,3,4-tetrahydroisoquinolin-6-yl)pyridin-3-yl)acetic acid], which EC50 is on record?
**A.** < 0.1 µM

same assay, conditions: Human immunodeficiency virus 1, MT2, 120 h, read-out: EC50 μM

**Q.** Which EC50 does the source give for `Cc1nc(C)c([C@H](OC(C)(C)C)C(=O)O)c(N2CCC(C)(C)CC2)c1-c1ccc2c(c1)CCN(Cc1ccc(OC(C)C)cc1)C2` [Compound 150, (S)-2-(tert-butoxy)-2-(4-(4,4-dimethylpiperidin-1-yl)-5-(2-(4-isopropoxybenzyl)-1,2,3,4-tetrahydroisoquinolin-6-yl)-2,6-dimethylpyridin-3-yl)acetic acid] here?
**A.** 0.021 µM

**Q.** With `Cc1nc(C)c([C@H](OC(C)(C)C)C(=O)O)c(N2CCC(C)(C)CC2)c1-c1ccc2c(c1)CCN(Cc1ccc3c(c1)OCCO3)C2` [Compound 156, (S)-2-(tert-butoxy)-2-(5-(2-((2,3-dihydrobenzo[b][1,4]dioxin-6-yl)methyl)-1,2,3,4-tetrahydroisoquinolin-6-yl)-4-(4,4-dimethylpiperidin-1-yl)-2,6-dimethylpyridin-3-yl)acetic acid] as the compound, how does the EC50 read?
**A.** 0.008 µM

**Q.** How did the EC50 turn out when `CCCCCCCCCOc1ccc(CN2CCc3cc(-c4c(C)nc(C)c([C@H](OC(C)(C)C)C(=O)O)c4N4CCC(C)(C)CC4)ccc3C2)cc1` [Compound 163, (S)-2-(tert-butoxy)-2-(4-(4,4-dimethylpiperidin-1-yl)-2,6-dimethyl-5-(2-(4-(nonyloxy)benzyl)-1,2,3,4-tetrahydroisoquinolin-6-yl)pyridin-3-yl)acetic acid] was run?
**A.** 0.076 µM
